Laboratory results from ChEMBL document CHEMBL3045759, “Synthesis of a New 1, 2, 4-Oxadiazol-5-one Derivative, KC10017, and Its Controlling Activity against Rice Blast Disease Caused by Magnaporthe grisea” (J Pestic Sci, 2002).
Active and inactive are the calls of the source. No cut-off for these calls is given here.

Assays:
Pyricularia grisea [1] = test: microbe, parasite or virus in culture; assay type: functional; details: P-2
Pyricularia grisea [2] = test: microbe, parasite or virus in culture; assay type: functional; details: P-2; remark: listed apart in the source
Pyricularia grisea [3] = test: microbe, parasite or virus in culture; assay type: functional; details: P-2; remark: listed apart in the source
Pyricularia grisea [4] = test: microbe, parasite or virus in culture; assay type: functional; details: P-2; remark: listed apart in the source
Blumeria hordei = test: Fungicidal activity against Blumeria graminis f. sp. hordei assessed as control of barley powdery mildew at 50 ug/ml; assay type: functional, organism-based
Pyricularia grisea [5] = test: Fungicidal activity against Magnaporthe grisea P-2 in rice plant assessed as control of rice blast disease at 100 ug/ml measured after 14 days of treatment at 26 +/- 2 degC measured afterr 5 days; assay type: functional, organism-based
[6] = Lipophilicity, log P of the compound; assay type: physicochemical; details: octanol/water
Botrytis cinerea = test: Fungicidal activity against Botryotinia fuckeliana assessed as control of cucumber gray mold disease at 50 ug/ml; assay type: functional, organism-based
Puccinia triticina = test: Fungicidal activity against Puccinia triticina assessed as control of wheat leaf rust disease at 50 ug/ml; assay type: functional, organism-based
Pyricularia grisea [7] = test: Fungicidal activity against Magnaporthe grisea P-2 in rice plant assessed as control of rice blast disease at 0.5 ug/ml at 26 +/- 2 degC measured after 5 days; assay type: functional, organism-based
Pyricularia grisea [8] = test: Fungicidal activity against Magnaporthe grisea P-2 in rice plant assessed as control of rice blast disease at 50 ug/ml; assay type: functional, organism-based
Pyricularia grisea [9] = test: Inhibition of mycelial growth of Magnaporthe grisea P-2 assessed as mycelial dry weight at 0.1 to 100 ug/ml at 25 degC; assay type: functional, organism-based
Rhizoctonia solani = test: Fungicidal activity against Rhizoctonia solani assessed as control of rice sheath blight disease at 50 ug/ml; assay type: functional, organism-based
Phytophthora infestans = test: Fungicidal activity against Phytophthora infestans assessed as control of tomato late blight disease at 50 ug/ml; assay type: functional, organism-based

Compound: Cc1cccc2sc3nncn3c12 [TRICYCLAZOLE]
- inhibition at 10 µg/mL (Pyricularia grisea [1]): 0%
- inhibition at 1 µg/mL (Pyricularia grisea [2]): 3.8%
- inhibition at 10 µg/mL (Pyricularia grisea [3]): 7.2%
- inhibition at 1 µg/mL (Pyricularia grisea [4]): 0%

Compound: Cc1cccc(NC(=O)Cn2c(COc3c(C)cc(Br)cc3C)noc2=O)c1
- Activity (Blumeria hordei): inactive
- Activity (Pyricularia grisea [5]): Active
- logP [6]: 6.01
- Activity (Botrytis cinerea): inactive
- inhibition at 10 µg/mL (Pyricularia grisea [1]): 0%
- Activity (Puccinia triticina): inactive
- Activity (Pyricularia grisea [7]): Active
- Activity (Pyricularia grisea [8]): Active
- inhibition at 1 µg/mL (Pyricularia grisea [2]): 2.9%
- inhibition (Pyricularia grisea [9]): inactive
- Activity (Rhizoctonia solani): inactive
- inhibition at 10 µg/mL (Pyricularia grisea [3]): 0%
- inhibition at 1 µg/mL (Pyricularia grisea [4]): 0%
- Activity (Phytophthora infestans): inactive

Compound: CN(CC[C@H](N)CC(=O)N[C@H]1C=C[C@H](n2ccc(N)nc2=O)O[C@@H]1C(=O)O)C(=N)N [BLASTICIDIN_S]
- inhibition at 1 µg/mL (Pyricularia grisea [2]): 76.6%
- inhibition at 10 µg/mL (Pyricularia grisea [3]): 100%
- inhibition at 1 µg/mL (Pyricularia grisea [4]): 25.2%

Compound: CCOP(=O)(Sc1ccccc1)Sc1ccccc1 [EDIFENPHOS]
- inhibition at 1 µg/mL (Pyricularia grisea [2]): 76.4%
- inhibition at 10 µg/mL (Pyricularia grisea [3]): 100%
- inhibition at 1 µg/mL (Pyricularia grisea [4]): 44.8%
